In patent US20070203066A1, “Compositions and methods for inhibiting cellular proliferation” (priority 2005, published 2007) one finds IC50 data, which are given here for seven compounds.

For orientation: IC50 means the concentration at which inhibition is half-maximal. A low value points to higher potency.

Some results are limits rather than exact numbers.

The assay deals with HUVECs. In kind it is cell-based. The conditions noted are these: 48 h. In outline: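 HUVECs seeded at 5,000 cells/well in EBM with 2% FCS, adhered ≥12 hours, then stimulated with bFGF 10 ng/ml or VEGF 5 ng/ml plus varying peptide concentrations. After 48 hours at 37 ° C, 5% CO2, proliferation inhibition read by BrdU incorporation.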
With `CC[C@H](C)[C@H](NC(=O)[C@H](C)NC(=O)[C@@H](NC(=O)[C@H](C)NC(=O)[C@H](CCC(N)=O)NC(=O)[C@H](CCCNC(=N)N)NC(=O)[C@H](CCCNC(=N)N)NC(=O)[C@H](CCCNC(=N)N)NC(=O)[C@H](CCCNC(=N)N)NC(=O)[C@H](CCCNC(=N)N)NC(C)=O)C(C)C)C(=O)N[C@@H](Cc1c[nH]cn1)C(=O)N[C@@H](Cc1ccccc1)C(=O)N[C@@H](CCCCNC(=O)CN(CC(=O)NCCCC[C@H](NC(=O)[C@H](Cc1ccccc1)NC(=O)[C@H](Cc1c[nH]cn1)NC(=O)[C@@H](NC(=O)[C@H](C)NC(=O)[C@@H](NC(=O)[C@H](C)NC(=O)[C@H](CCC(N)=O)NC(=O)[C@H](CCCNC(=N)N)NC(=O)[C@H](CCCNC(=N)N)NC(=O)[C@H](CCCNC(=N)N)NC(=O)[C@H](CCCNC(=N)N)NC(=O)[C@H](CCCNC(=N)N)NC(C)=O)C(C)C)[C@@H](C)CC)C(N)=O)C(=O)CCNC(=O)OC(C)(C)C)C(N)=O` [Peptide 250], the IC50 was below 10 µM.

In the case of `CC[C@@H](C)[C@@H](NC(=O)[C@@H](NC(=O)[C@H](C)NC(=O)[C@@H](NC(=O)[C@H](CCCNC(=N)N)NC(=O)[C@H](CCC(N)=O)NC(=O)[C@H](CCCNC(=N)N)NC(=O)[C@H](CCCNC(=N)N)NC(=O)[C@H](CCCNC(=N)N)NC(=O)[C@H](CCCNC(=N)N)NC(=O)[C@H](C)NC(C)=O)C(C)C)[C@@H](C)CC)C(=O)N[C@@H](Cc1ccccc1)C(=O)N[C@@H](CCCCNC(=O)CN(CC(=O)NCCCC[C@H](NC(=O)[C@H](Cc1ccccc1)NC(=O)[C@H](NC(=O)[C@@H](NC(=O)[C@H](C)NC(=O)[C@@H](NC(=O)[C@H](CCCNC(=N)N)NC(=O)[C@H](CCC(N)=O)NC(=O)[C@H](CCCNC(=N)N)NC(=O)[C@H](CCCNC(=N)N)NC(=O)[C@H](CCCNC(=N)N)NC(=O)[C@H](CCCNC(=N)N)NC(=O)[C@H](C)NC(C)=O)C(C)C)[C@@H](C)CC)[C@H](C)CC)C(N)=O)C(=O)CCNC(=O)OC(C)(C)C)C(N)=O` [Peptide 254], the IC50 is below 10 µM. In the case of `CC[C@H](C)[C@H](NC(=O)[C@H](C)NC(=O)[C@@H](NC(=O)[C@H](C)NC(=O)[C@H](CCC(N)=O)NC(=O)[C@H](CCCNC(=N)N)NC(=O)[C@H](CCCNC(=N)N)NC(=O)[C@H](CCCNC(=N)N)NC(=O)[C@H](CCCNC(=N)N)NC(=O)[C@H](CCCNC(=N)N)NC(C)=O)C(C)C)C(=O)N[C@@H](Cc1ccc(O)cc1)C(=O)N[C@@H](Cc1ccccc1)C(=O)N[C@@H](CCCCNC(=O)CN(CC(=O)NCCCC[C@H](NC(=O)[C@H](Cc1ccccc1)NC(=O)[C@H](Cc1ccc(O)cc1)NC(=O)[C@@H](NC(=O)[C@H](C)NC(=O)[C@@H](NC(=O)[C@H](C)NC(=O)[C@H](CCC(N)=O)NC(=O)[C@H](CCCNC(=N)N)NC(=O)[C@H](CCCNC(=N)N)NC(=O)[C@H](CCCNC(=N)N)NC(=O)[C@H](CCCNC(=N)N)NC(=O)[C@H](CCCNC(=N)N)NC(C)=O)C(C)C)[C@@H](C)CC)C(N)=O)C(=O)CCNC(=O)OC(C)(C)C)C(N)=O` [Peptide 267], the IC50 is below 10 µM.

Regarding `CC[C@H](C)[C@H](NC(=O)[C@H](C)NC(=O)[C@@H](NC(=O)[C@H](C)NC(=O)[C@H](CCC(N)=O)NC(=O)[C@H](CCCNC(=N)N)NC(=O)[C@H](CCCNC(=N)N)NC(=O)[C@H](CCCNC(=N)N)NC(=O)[C@H](C)NC(=O)[C@H](CCCNC(=N)N)NC(C)=O)C(C)C)C(=O)N[C@@H](CC(N)=O)C(=O)N[C@@H](Cc1ccccc1)C(=O)N[C@@H](CCCCNC(=O)CN(CC(=O)NCCCC[C@H](NC(=O)[C@H](Cc1ccccc1)NC(=O)[C@H](CC(N)=O)NC(=O)[C@@H](NC(=O)[C@H](C)NC(=O)[C@@H](NC(=O)[C@H](C)NC(=O)[C@H](CCC(N)=O)NC(=O)[C@H](CCCNC(=N)N)NC(=O)[C@H](CCCNC(=N)N)NC(=O)[C@H](CCCNC(=N)N)NC(=O)[C@H](C)NC(=O)[C@H](CCCNC(=N)N)NC(C)=O)C(C)C)[C@@H](C)CC)C(N)=O)C(=O)CCNC(=O)OC(C)(C)C)C(N)=O` [Peptide 272], the IC50 is below 10 µM. Consider `CC[C@H](C)[C@H](NC(=O)[C@H](CCCNC(=N)N)NC(=O)[C@@H](NC(=O)[C@H](CCCNC(=N)N)NC(=O)[C@H](CCC(N)=O)NC(=O)[C@H](CCCNC(=N)N)NC(=O)[C@H](CCCNC(=N)N)NC(=O)[C@H](CCCNC(=N)N)NC(=O)[C@H](CCCNC(=N)N)NC(=O)[C@H](CCCNC(=N)N)NC(C)=O)C(C)C)C(=O)N[C@@H](Cc1ccc(O)cc1)C(=O)N[C@@H](Cc1ccccc1)C(=O)N[C@@H](CCCCNC(=O)CN(CC(=O)NCCCC[C@H](NC(=O)[C@H](Cc1ccccc1)NC(=O)[C@H](Cc1ccc(O)cc1)NC(=O)[C@@H](NC(=O)[C@H](CCCNC(=N)N)NC(=O)[C@@H](NC(=O)[C@H](CCCNC(=N)N)NC(=O)[C@H](CCC(N)=O)NC(=O)[C@H](CCCNC(=N)N)NC(=O)[C@H](CCCNC(=N)N)NC(=O)[C@H](CCCNC(=N)N)NC(=O)[C@H](CCCNC(=N)N)NC(=O)[C@H](CCCNC(=N)N)NC(C)=O)C(C)C)[C@@H](C)CC)C(N)=O)C(=O)CCNC(=O)OC(C)(C)C)C(N)=O` [Peptide 279], for which the IC50 was below 10 µM. In the case of `CC[C@H](C)[C@H](NC(=O)[C@H](C)NC(=O)[C@@H](NC(=O)[C@H](C)NC(=O)[C@H](CCC(N)=O)NC(=O)[C@H](CCCNC(=N)N)NC(=O)[C@H](CCCNC(=N)N)NC(=O)[C@H](CCCNC(=N)N)NC(=O)[C@H](CCCNC(=N)N)NC(=O)[C@H](C)NC(C)=O)C(C)C)C(=O)N[C@@H](Cc1ccc(O)cc1)C(=O)N[C@@H](Cc1ccccc1)C(=O)N[C@@H](CCCCNC(=O)CN(CC(=O)NCCCC[C@H](NC(=O)[C@H](Cc1ccccc1)NC(=O)[C@H](Cc1ccc(O)cc1)NC(=O)[C@@H](NC(=O)[C@H](C)NC(=O)[C@@H](NC(=O)[C@H](C)NC(=O)[C@H](CCC(N)=O)NC(=O)[C@H](CCCNC(=N)N)NC(=O)[C@H](CCCNC(=N)N)NC(=O)[C@H](CCCNC(=N)N)NC(=O)[C@H](CCCNC(=N)N)NC(=O)[C@H](C)NC(C)=O)C(C)C)[C@@H](C)CC)C(N)=O)C(=O)CCNC(=O)OC(C)(C)C)C(N)=O` [Peptide 315], the IC50 is below 10 µM. In turn, `CC[C@H](C)[C@H](NC(=O)[C@H](Cc1c[nH]cn1)NC(=O)[C@@H](NC(=O)[C@H](Cc1c[nH]cn1)NC(=O)[C@H](CCC(N)=O)NC(=O)[C@H](CCCNC(=N)N)NC(=O)[C@H](CCCNC(=N)N)NC(=O)[C@H](CCCNC(=N)N)NC(=O)[C@H](CCCNC(=N)N)NC(=O)[C@H](Cc1c[nH]cn1)NC(C)=O)C(C)C)C(=O)N[C@@H](Cc1ccc(O)cc1)C(=O)N[C@@H](Cc1ccccc1)C(=O)N[C@@H](CCCCNC(=O)CN(CC(=O)NCCCC[C@H](NC(=O)[C@H](Cc1ccccc1)NC(=O)[C@H](Cc1ccc(O)cc1)NC(=O)[C@@H](NC(=O)[C@H](Cc1c[nH]cn1)NC(=O)[C@@H](NC(=O)[C@H](Cc1c[nH]cn1)NC(=O)[C@H](CCC(N)=O)NC(=O)[C@H](CCCNC(=N)N)NC(=O)[C@H](CCCNC(=N)N)NC(=O)[C@H](CCCNC(=N)N)NC(=O)[C@H](CCCNC(=N)N)NC(=O)[C@H](Cc1c[nH]cn1)NC(C)=O)C(C)C)[C@@H](C)CC)C(N)=O)C(=O)CCNC(=O)OC(C)(C)C)C(N)=O` [Peptide 322] came in with an IC50 below 10 µM.
